Patent US12310964B2, “Compositions and methods for the treatment of Lowe Syndrome” (Purdue Research Foundation, priority 2020, dated 2025)

What was measured:
Type in all cases: cell-based, Human
[1] = system: HMG-CoA reductase in LS cells; assay: Cholesterol uptake assay; details: LS patient fibroblasts in Cho-free media
Protocol: Assay for cholesterol uptake was performed using cholesterol-free media and an AbCam kit (ab236212; Cambridge, UK) according to manufacturer's instructions.

LS patient cells [2] = assay: Spreading at multiple time points (spreading score, time-lapse); details: LS patient cells treated with rosuvastatin; non-linear regression of FIG. 4 data
Protocol: (§1) Human dermal fibroblasts were treated as described above, seeded on fibronectin-coated LabTek chambers, and allowed to attach and spread. Cells were imaged at intervals of 10 min after seeding for 8 h using 20× objective in a Zeiss Axiovert inverted microscope. Number of detaching cells was quantified every 10 min up to the first hour by using the cell counter tool in ImageJ (NIH). To determine spreading kinetics, individual cells were tracked in each time lapse image and were scored from 1-5 based on general cell morphology. Briefly, cells that were just attached and looked circular with no protrusions or visible extensions received a score of 1. Cells with needle-like (filopodia) projections were scored 2, cells with lamellopodia-like extensions were scored 3, cells with more extended lamellopodia-like extensions and increased cell area were given a score of 4, and a further increase in cell area, often accompanied by isotropic spread morphology, was given a score of 5.
A von Bertalanffy logistic model was adopted to fit the data presented in FIG. 3A (adhesion) and FIG. 4 (spreading) as shown in Table 3. […] The associated error ΔK was estimated using standard rules of error propagation based on the determined T0.5 error (ΔT0.5), according to ΔK=K(ΔT0.5/T0.5).

LS patient cells [3] = assay: Cell adhesion by time-lapse microscopy
Protocol: as §1
Alternatively, cells were treated as described above and allowed to attach on fibronectin-coated dishes. Immediately after seeding, the cells were imaged with a 10× objective simultaneously using up to 3 Cytosmart Imaging Systems (Lonza, Basel, Switzerland) at intervals of 30 s for 2 h. Number of cells attached was quantified every 10 min up to the first hour using the Cell Counter tool in ImageJ software (NIH). […]

Normal fibroblasts = assay: Cell spreading assay after a predetermined time-point (cell area); details: 30 min after seeding on fibronectin
Protocol: (§2) Human dermal fibroblasts (12 h after seeding) were treated with the indicated drug (or vehicle) in 0.1% serum for the indicated time. After drug treatment, the cells were lifted with 20 mM EDTA (ethylenediaminetetraacetic acid) in PBS (phosphate-buffered saline), pelleted at 300×g for 5 min and resuspended in 1% serum in the presence of drug or vehicle. Cell suspensions were then set in a rotator for 1 hour before seeding them on fibronectin-coated coverslips for 30 min, undisturbed, to allow attachment and spreading. After spreading, coverslips were gently rinsed with PBS and fixed in 4% formaldehyde for 10 min at room temperature. Cells were stained with rhodamine—phalloidin and imaged by epifluorescence microscopy. At least 50 cells were quantified per experiment by tracing and measuring cell areas by using the magic wand tool in ImageJ software (National Institutes of Health (NIH), Bethesda, MD, USA).
(§3) Cell spreading on fibronectin-coated surfaces of cells treated with RhoA modulators in comparison to untreated cells was observed. Cells were fixed and stained with fluorescently labeled-phalloidin after 30 min spreading time at 37° C. Following imaging, cell area measurements were performed.

LS patient cells [4] = assay: Viability/toxicity assessment (cell counting, morphology, MTT)
Protocol: Cells were incubated with the indicated drugs for the specified times at different concentrations as described in low serum (0.1%) media to avoid substantial protein-mediated drug sequestration. In addition to cell counting post-treatment, a sample of cells seeded on fibronectin-coated coverslips was fixed and stained with fluorescein isothiocyanate (FITC)-phalloidin and DAPI (4′,6-diamidino-2-phenylindole) for cell morphology inspection. Viability was monitored by performing MTT (3-(4,5-dimethylthiazol-2-yl)-2,5-diphenyltetrazolium bromide) assays as follows: Following treatment of cells (in triplicates) with indicated drugs at different concentrations for specified times, media were aspirated and replaced with MTT solution (freshly prepared at 0.5 mg/ml in complete media) and incubated for 1.5 h. Additionally, a blank control with only MTT reagent containing no cells was also prepared. Following incubation, solution was aspirated and MTT was immediately solubilized using 1 mL DMSO (dimethylsulfoxide) (per well) by gentle pipetting. Absorbance values of solubilized MTT solution from the different wells were measured at 570 nm using a spectrophotometer.

normal cells = assay: Ciliogenesis assay
Protocol: Cells were seeded on glass cover slips and grown for 24 h in complete media. Then media was replaced by 0.1% serum DMEM (starvation media) containing vehicle or the drug to induce ciliogenesis for the indicated times. Cells were then fixed in 4% formaldehyde—PBS for 10 min and immuno-labeled with anti-acetylated tubulin antibody (see Table 2). At least 50 cells were imaged for every experiment and experiments were repeated at least thrice. The fraction of cells displaying cilia and cilia length were determined as described previously (Coon et al. (2012), supra).

Rac1 = Rac1 FRET biosensor assay; details: LS cells, FRET-based biosensor
Protocol: FIG. 9. […] LS patient cells expressing Rac1 FRET probe were treated with vehicle or rosuvastatin, imaged and FRET signals analyzed by the ratiometric method (*p<0.05, Wilcoxon test).

[5] = system: Focal Adhesion Kinase (FAK); assay: Focal adhesion immunofluorescence (phospho-FAK), confocal microscopy; details: LS cells
Protocol: Cells were prepared as described under “Spreading after a pre-determined time point.” After fixation, indirect immunofluorescence was performed using antibodies against phospho-FAK (Y397) or vinculin. Briefly, cells were gently washed with PBS, fixed with 4% formaldehyde-PBS for 10 min and permeabilized using 0.25% Triton-X 100 in PBS for 20 min, followed by blocking with 5% BSA (bovine serum albumin) in PBS for 30 min. Cells were also immuno-stained with Phalloidin-FITC and DAPI to label the actin cytoskeleton and nucleus, respectively. Images were acquired at the Indiana O'Brien Center for Biological Microscopy (ICBM; Division of Nephrology, Indiana University School of Medicine, Indianapolis, IN, USA) using an Olympus IX81 inverted confocal microscope. A 60× Oil objective (NA 1.42) was used and randomly selected fields were imaged using constant voltage, gain and intensity for the different groups, as well as uniform step size (0.19 μm) using sequential image collection mode.

LS patient cells [6] = assay: Cell spreading assay after a predetermined time-point (cell area)
Protocol: Two approaches to monitor cell spreading were used: after a predetermined time-point and at multiple time points.
1) Spreading after a Predetermined Time-Point.
as §2, §3

CC(C)c1nc(N(C)S(C)(=O)=O)nc(-c2ccc(F)cc2)c1/C=C/[C@@H](O)C[C@@H](O)CC(=O)O [rosuvastatin]
uptake of fluorescently labeled Cho (inhibition of cholesterol biosynthesis) [1]: less acute inhibition of cholesterol biosynthesis
Spreading, Process Continuous Rate (LS patient cells [2]): 24 ± 2 min^−1 × 10^3
LS cell adhesion defect (LS patient cells [3]; LS cells on fibronectin-coated surfaces): alleviated the LS cell adhesion defect
Adhesion, Process Continuous Rate (LS patient cells [3]; LS patient cells treated with rosuvastatin, fibronectin-coated surfaces, non-linear regression of FIG. 3A data): 35 ± 5 min^−1 × 10^3
cell spreading of normal cells (Normal fibroblasts): No obvious effect
toxicity, chronic exposure (LS patient cells [4]; 10 μM for ≥72 h): relatively innocuous
toxicity, acute dose (LS patient cells [4]; 100 μM, exposure time≥15 h): induced toxicity
toxicity (viability and stress-induced changes in morphology) (LS patient cells [4]; LS cells after exposure to statins): minimal toxicity
ciliogenesis by normal cells (normal cells): No obvious effect
Rac1 activation levels (Rac1): raised
peripherally activated FAK (phospho-Tyr397) abnormality [5]: alleviated
LS spreading phenotype alleviation, acute dose (LS patient cells [6]; 100 μM for 1 h): Phenotype alleviation was observed
cell spreading / membrane remodeling phenotype in cells from another LS patient (LS patient cells [6]; LS2 cells, FIG. 8A): ameliorated
LS cell spreading phenotype (LS patient cells [6]; LS patient fibroblasts, 30 min after seeding on fibronectin): mitigated to a certain extent the LS spreading phenotype
ranking of statins: rescue effect over needed dose and toxicity (LS patient cells [6]; LS spreading defects): produced the best results
